Data: patent publication US20150105252A1, “SUBSTITUTED PYRAZOLES AS HERBICIDES” (E I DU PONT DE NEMOURS AND COMPANY, priority 2013, published 2015)

Assays:
Test in all cases: Test C postemergence
ryegrass, Italian = assay type: in vivo, Lolium multiflorum
Procedure, shortened: (§1)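 Visual rating, 0–100 scale (0 no effect, 100 complete control), vs untreated controls after 13–15 d greenhouse. Pre: seeds in loam/sand, treated at sowing. Post: plants in peat-based mix, 1- to 4-leaf (2–18 cm). Solvent + surfactant formulation, non-phytotoxic.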

johnsongrass = assay type: in vivo, Sorghum halepense
Procedure, shortened: as §1

blackgrass = assay type: in vivo, Alopecurus myosuroides
Procedure, shortened: as §1

chickweed = assay type: in vivo, Stellaria media
Procedure, shortened: as §1

wheat = assay type: in vivo, Triticum aestivum
Procedure, shortened: as §1

oat, wild = assay type: in vivo, Avena fatua
Procedure, shortened: as §1

kochia = assay type: in vivo, Kochia scoparia
Procedure, shortened: as §1

soybean = assay type: in vivo, Glycine max
Procedure, shortened: as §1

lambsquarters = assay type: in vivo, Chenopodium album
Procedure, shortened: as §1

oilseed rape = assay type: in vivo, Brassica napus
Procedure, shortened: as §1

morningglory = assay type: in vivo, Ipomoea coccinea
Procedure, shortened: as §1

waterhemp = assay type: in vivo, Amaranthus rudis
Procedure, shortened: as §1

pigweed = assay type: in vivo, Amaranthus retroflexus
Procedure, shortened: as §1

nutsedge, yellow = assay type: in vivo, Cyperus esculentus
Procedure, shortened: as §1

ragweed = assay type: in vivo, Ambrosia elation
Procedure, shortened: as §1

foxtail, giant = assay type: in vivo, Setaria faberii
Procedure, shortened: as §1

barnyardgrass = assay type: in vivo, Echinochloa crus-galli
Procedure, shortened: as §1

[1] = Postemergence, 31 g ai/ha, visually evaluated after 13 to 15 days
[2] = postemergence, 62 g ai/ha, scale 0 to 100
[3] = postemergence, 250 g ai/ha, scale 0 to 100 (0 no effect, 100 complete control)
[4] = postemergence, 125 g ai/ha, scale 0 to 100, 0 no effect, 100 complete control

CCCc1cc(C(=O)NCC(F)(F)F)nn1Cc1ccnc(C(F)(F)F)c1 [Compound 105]
60: Plant response rating, Blackgrass (blackgrass; [3]) | Plant response rating, Oat, Wild (oat, wild; [3])
20: Plant response rating, Nutsedge, Yellow (nutsedge, yellow; [4]) | Barnyardgrass plant response rating (barnyardgrass; [2])
95: Plant response rating, Chickweed (chickweed; [3]) | Plant response rating, Chickweed (chickweed; [4]) | Plant response rating, Kochia (kochia; [3]) | Plant response rating, Soybean (soybean; [3]) | Plant response rating, Soybean (soybean; [4]) | Lambsquarters plant response rating (lambsquarters; [2]) | Plant response rating, Lambsquarters (lambsquarters; [4]) | Plant response rating, Morningglory (morningglory; [3])
90: Plant response rating (scale of 0 to 100 where 0 is no effect and 100 is complete control), Chickweed (chickweed; [1]) | Chickweed plant response rating (chickweed; [2]) | Plant response rating (scale of 0 to 100 where 0 is no effect and 100 is complete control), Kochia (kochia; [1]) | Kochia plant response rating (kochia; [2]) | Plant response rating, Kochia (kochia; [4]) | Plant response rating, Oilseed Rape (oilseed rape; [3]) | Plant response rating, Pigweed (pigweed; [3])
35: Johnsongrass plant response rating (johnsongrass; [2]) | Plant response rating, Blackgrass (blackgrass; [4])
25: Plant response rating (scale of 0 to 100 where 0 is no effect and 100 is complete control), Oat, Wild (oat, wild; [1])
75: Plant response rating, Johnsongrass (johnsongrass; [3]) | Plant response rating (scale of 0 to 100 where 0 is no effect and 100 is complete control), Lambsquarters (lambsquarters; [1]) | Waterhemp plant response rating (waterhemp; [2]) | Plant response rating, Waterhemp (waterhemp; [4]) | Plant response rating (scale of 0 to 100 where 0 is no effect and 100 is complete control), Pigweed (pigweed; [1]) | Plant response rating, Foxtail, Giant (foxtail, giant; [4])
15: Plant response rating (scale of 0 to 100 where 0 is no effect and 100 is complete control), Foxtail, Giant (foxtail, giant; [1])
80: Plant response rating (scale of 0 to 100 where 0 is no effect and 100 is complete control), Soybean (soybean; [1]) | Soybean plant response rating (soybean; [2]) | Plant response rating (scale of 0 to 100 where 0 is no effect and 100 is complete control), Morningglory (morningglory; [1]) | Morningglory plant response rating (morningglory; [2]) | Plant response rating, Ragweed (ragweed; [3])
65: Plant response rating (scale of 0 to 100 where 0 is no effect and 100 is complete control), Waterhemp (waterhemp; [1]) | Plant response rating, Ragweed (ragweed; [4])
5: Plant response rating (scale of 0 to 100 where 0 is no effect and 100 is complete control), Ryegrass, Italian (ryegrass, Italian; [1]) | Plant response rating (scale of 0 to 100 where 0 is no effect and 100 is complete control), Johnsongrass (johnsongrass; [1]) | Plant response rating (scale of 0 to 100 where 0 is no effect and 100 is complete control), Wheat (wheat; [1]) | Wheat plant response rating (wheat; [2]) | Plant response rating (scale of 0 to 100 where 0 is no effect and 100 is complete control), Nutsedge, Yellow (nutsedge, yellow; [1]) | Nutsedge, Yellow plant response rating (nutsedge, yellow; [2])
30: Plant response rating, Ryegrass, Italian (ryegrass, Italian; [4]) | Blackgrass plant response rating (blackgrass; [2]) | Oat, Wild plant response rating (oat, wild; [2]) | Plant response rating (scale of 0 to 100 where 0 is no effect and 100 is complete control), Ragweed (ragweed; [1])
45: Plant response rating, Ryegrass, Italian (ryegrass, Italian; [3]) | Plant response rating, Johnsongrass (johnsongrass; [4]) | Plant response rating, Wheat (wheat; [3]) | Plant response rating, Oat, Wild (oat, wild; [4]) | Plant response rating (scale of 0 to 100 where 0 is no effect and 100 is complete control), Oilseed Rape (oilseed rape; [1]) | Plant response rating, Barnyardgrass (barnyardgrass; [4])
50: Oilseed Rape plant response rating (oilseed rape; [2])
40: Plant response rating, Nutsedge, Yellow (nutsedge, yellow; [3]) | Ragweed plant response rating (ragweed; [2]) | Foxtail, Giant plant response rating (foxtail, giant; [2])
85: Plant response rating, Oilseed Rape (oilseed rape; [4]) | Plant response rating, Morningglory (morningglory; [4]) | Plant response rating, Waterhemp (waterhemp; [3]) | Pigweed plant response rating (pigweed; [2]) | Plant response rating, Pigweed (pigweed; [4]) | Plant response rating, Foxtail, Giant (foxtail, giant; [3]) | Plant response rating, Barnyardgrass (barnyardgrass; [3])
10: Ryegrass, Italian plant response rating (ryegrass, Italian; [2]) | Plant response rating (scale of 0 to 100 where 0 is no effect and 100 is complete control), Blackgrass (blackgrass; [1]) | Plant response rating, Wheat (wheat; [4]) | Plant response rating (scale of 0 to 100 where 0 is no effect and 100 is complete control), Barnyardgrass (barnyardgrass; [1])
98: Plant response rating, Lambsquarters (lambsquarters; [3])
